In experiment [1] the test system is HaCaT human epidermal keratinocytes. Nature of the experiment: MTT assay cytotoxicity. Type of experiment: cell-based. Conditions: 24 hours, read-out: IC50 according to MTT assay. As for the experimental part:
HaCaT human epidermal keratinocytes, # ATCC PCS-200-011) were incubated using Dulbecco's modified Eagle's medium (DMEM, # DMEM-HPA, Capricorn Scientific, Ebsdorfergrund, Germany) in the conditions of 37° C. and 5% CO2. NIH3T3 mouse embryo fibroblasts (# KCLB 21658), RAW264.7 murine macrophages (preosteoclast cell line, # KCLB 40071), HCT116 human colon cancer cells (# KCLB 10247), PC3 human prostate adenocarcinoma cells (# KCLB 21435), HT1080 human fibrosarcoma cells (# KCLB 1121), and B16F10 mouse malignant melanoma cells (# KCLB 80008) were purchased from the Korean Cell Line Bank, and incubated using DMEM in the conditions of 37° C. and 5% C02.
The compound isolated from Osmunda japonica, prepared in section 1 of <Example 1>, was investigated for cytotoxicity using MTT assay.
MTT assay was as follows.
Cells were incubated at 1×10^3 cells/well in a 96-well plate containing DMEM with 10% fetal bovine serum (FBS) at 5% CO2 and 37° C., and then osmundacetone was added to the cell medium, followed by incubation for 24 hours. Thereafter, 100 μL of MTT (0.5 mg/ml PBS) was administered, followed by incubation for 2 hours. Thereafter, the medium was removed from each well, and 100 μL of DMSO was added. After incubation for 10 minutes, the absorbance was measured using a microplate reader (SPCTRA MAX 340PC, Molecular Devices, USA) at 570 nm. The absorbance is an indicator showing the number of living cells, and calculated by the following equation. The reproducibility thereof was validated by three experiments.
Cell proliferation (%)=OD550(sample)/OD550(control)
On the technique in general: Tetrazolium dyes change colour on reduction, which living cells bring about.

In the next experiment the test system is RUNX2 in MC3T3-E1 cells. Briefly: Western blot, RUNX2 expression. It counts as cell-based, mouse. The conditions noted are these: 50 μM. As for the experimental part:
In order to analyze the expression of osteoblast differentiation markers during a differentiation procedure, 3×10^5 MC3T3-E1 cells were dispensed in a 100 mm culture plate together with 10 mL of complete α-MEM containing ascorbic acid (50 μg/mL) and 10 mM R-glycerophosphate per well. Here, 50 μM osmundacetone was added or not added, and the cells were incubated at 37 […] in a 5% CO2 incubator for 21 days while the medium was exchanged every 3-4 days.
The negative control cells were cultured without differentiation factors, and the osteoblasts and a culture thereof were dispensed, and then collected on day 7, 14, or 21.
The cells were lysed using RIPA buffer, and then the expression of runt-related transcription factor 2 (RUNX2) was analyzed. Also for analysis of OCN secretion, the culture was collected, and normalized by cellular DNA.
Proteins were analyzed using SDS-PAGE on 12.5% […] gels, and transferred on polyvinylidene difluoride (PVDF) membrane through electrophoresis.
The membrane was blocked using non-fat milk, and examined using anti-RUNX2 (D1H7) rabbit monoclonal antibody (#8486, Cell Signaling Technology, MA, USA) or anti-OCN (FL-95) antibody (# sc-30045, Santa Cruz Biotechnology, TX, USA). Anti-actin antibody (# M177-3, MEDICAL & BIOLOGICAL LABORATORIES CO., LTD., Nagoya, Aichi, Japan) was used as an internal reference.
Protein bands on the blot were visualized using an enhanced chemiluminescent detection kit (# EBP-1073, PicoEPD Western Reagent, ELPIS-BIOTECH, Daejeon, Korea).

Take `CC(=O)/C=C/c1ccc(O)c(O)c1` [Osmundacetone, (3E)-4-(3,4-dihydroxyphenyl)-3-buten-2-one]: the IC50 in experiment [1] was 3.51 ± 0.11 mM. The “RUNX2 expression level, increase compared with non-treated positive control group” value in the experiment with RUNX2 in MC3T3-E1 cells (day 7) turned out to be 1.1 times; in the experiment on RUNX2 in MC3T3-E1 cells (day 14), 1.1 times; with RUNX2 in MC3T3-E1 cells (day 21) it was 2.1 times.

The IC50 is the point on the concentration scale where inhibition reaches its midpoint.

Values taken from US20200129450A1, “COMPOSITION COMPRISING OSMUNDACETONE OR PHARMACEUTICALLY ACCEPTABLE SALT THEREOF FOR PREVENTING OR TREATING BONE DISEASE” (KORPHARM CO., LTD., priority 2016, published 2020).
